Marks after values point to notes of the source that are not given here.
Columns and labels:
bone metastases [1] = test: PET/CT uptake (SUV max) in a patient with prostate carcinoma and bone metastases; format: in vivo; settings: same patient; DOTA^ZOL PET/CT day n, HBED-PSMA^CC PET/CT day n + 2
[2] = In vivo μPET experiments, pharmacological parameters (2-Compartment Model); settings: Wistar rats
[3] = Ex vivo biodistribution (organ SUV) in healthy Wistar rats 60 min after tail vein injection; settings: for Bone-to-organ ratio Blood / Bone-to-organ ratio Heart / Bone-to-organ ratio Intestine / Bone-to-organ ratio Kidneys / Bone-to-organ ratio Liver / Bone-to-organ ratio Lung / Bone-to-organ ratio Muscle / Bone-to-organ ratio Spleen: Wistar rats after 60 min; for SUV Blood / SUV Femur / SUV Heart / SUV Intestine / SUV Kidneys / SUV Liver / SUV Lung / SUV Muscle / SUV Spleen: Wistar rats, ex vivo, 60 min after injection, SUV (standard deviation) from five animals
Procedure: Under isoflurane anesthesia, 15-18 MBq of the ^68Ga-marked compound or of the ^177Lu-marked compounds, diluted in isotonic saline solution, was applied into the tail vein of healthy Wistar rats (N=5) having a weight between 140 and 220 g. The rats were killed 60 min after injection, organ samples were removed and weighed, and the accumulation of the marked bisphosphonate in the tissue was determined in SUV (standardized uptake value) according to the formula: SUV=(activity per g of tissue)/(injected activity) x body weight.

bone metastases [4] = test: First therapeutic application / scintigraphy of [177Lu]DOTA^ZOL in a prostate carcinoma patient with disseminated bone metastases; format: in vivo
Procedure: FIG. 5: Distribution of [^177Lu]DOTA^ZOL in a patient with disseminated bone metastases: [^177Lu]DOTA^ZOL scintigraphy on a patient with prostate carcinoma 6 hours after injection. In a first therapeutic applications [sic], within two months, the PSA value (which represents an important marker in monitoring the progress of the prostate carcinoma) could be lowered from 478 ng/mL initially to 88 ng/mL after only one treatment with 5.5 GBq [^177Lu]DOTA^ZOL. ^177Lu-DOTAM^ZOL may be used equivalently.

Compound	Elimination half-life t1/2(α) [2] [min]	Elimination half-life t1/2(β) [2] [h]	Bone-to-organ ratio Blood [3]	Bone-to-organ ratio Heart [3]	Bone-to-organ ratio Intestine [3]	Bone-to-organ ratio Kidneys [3]	Bone-to-organ ratio Liver [3]	Bone-to-organ ratio Lung [3]	Bone-to-organ ratio Muscle [3]	Bone-to-organ ratio Spleen [3]	SUV Blood [3]	SUV Femur [3]	SUV Heart [3]	SUV Intestine [3]	SUV Kidneys [3]	SUV Liver [3]	SUV Lung [3]	SUV Muscle [3]	SUV Spleen [3]	also measured
O=C(O)CN1CCN(CC(=O)O)CCN(CC(=O)NCCc2cn(CC(O)(P(=O)(O)O)P(=O)(O)O)cn2)CCN(CC(=O)O)CC1.[68Ga+3] [[^68Ga]DOTA^ZOL]	5	2.3	11.47	37.97	38.67	10.22	19.21	12.06	65.96	31.71	0.47 (0.19)^† SUV	5.40 (0.62)^†‡ SUV	0.14 (0.04)^†‡ SUV	0.14 (0.08)^ SUV	0.53 (0.04)^ SUV	0.28 (0.03)^‡ SUV	0.45 (0.11)^ SUV	0.08 (0.02)^† SUV	0.17 (0.02)^‡ SUV	SUV max, bone lesion 8th right rear rib (bone metastases [1]): 7.99 SUV max; SUV max, bone lesion C4 vertebral body and hip pedicle (bone metastases [1]): 12.38 SUV max; SUV max, bone lesion L2 vertebral body (bone metastases [1]): 68.92 SUV max; SUV max, bone lesion L3 vertebral body (bone metastases [1]): 62.96 SUV max; SUV max, bone lesion L4 vertebral body (bone metastases [1]): 34.51 SUV max; SUV max, bone lesion L5 vertebral body (bone metastases [1]): 21.94 SUV max; SUV max, bone lesion Left bones, upper ischium, and pubic bone (bone metastases [1]): 62.32 SUV max; SUV max, bone lesion Right acetabulum (bone metastases [1]): 25.39 SUV max; SUV max, bone lesion Right ischium (bone metastases [1]): 32.55 SUV max; SUV max, bone lesion Sacrum (bone metastases [1]): 17.98 SUV max; SUV max, bone lesion T9 vertebral body (bone metastases [1]): 17.08 SUV max; SUV max, bone lesion T11 vertebral body (bone metastases [1]): 32.29 SUV max; SUV max, soft tissue Bladder (bone metastases [1]): 15.53 SUV max; SUV max, soft tissue Left kidney (bone metastases [1]): 4.12 SUV max; SUV max, soft tissue Left parotid gland (bone metastases [1]): 1.46 SUV max; SUV max, soft tissue Liver (bone metastases [1]): 2.85 SUV max; SUV max, soft tissue Right kidney (bone metastases [1]): 9.34 SUV max; SUV max, soft tissue Right parotid gland (bone metastases [1]): 1.22 SUV max; SUV max, soft tissue Spleen (bone metastases [1]): 4.50 SUV max
O=C(O)CN1CCN(CC(=O)O)CCN(CC(=O)NCCC(P(=O)(O)O)P(=O)(O)O)CCN(CC(=O)O)CC1.[68Ga+3] [[^68Ga]BPAPD]	5	4	3.73	10.03	12.35	5.73	8.68	7.47	18.88	13.96	0.86 (0.21) SUV	3.21 (0.29) SUV	0.32 (0.09) SUV	0.26 (0.05) SUV	0.56 (0.08) SUV	0.37 (0.11) SUV	0.43 (0.08) SUV	0.17 (0.02) SUV	0.23 (0.08) SUV	
O=C(O)CN1CCN(CC(=O)O)CCN(CC(=O)NCCC(O)(P(=O)(O)O)P(=O)(O)O)CCN(CC(=O)O)CC1.[68Ga+3] [[^68Ga]DOTA^PAM]	4.5	4.5	7.61	19.49	16.11	9.44	10.02	8.61	47.96	14.51	0.60 (0.03) SUV	4.53 (0.17) SUV	0.23 (0.02) SUV	0.28 (0.12) SUV	0.48 (0.06) SUV	0.43 (0.04) SUV	0.53 (0.16) SUV	0.09 (0.02) SUV	0.31 (0.04) SUV	
O=C(O)CN1CCN(CC(=O)O)CCN(CC(=O)NCCc2cn(CC(O)(P(=O)(O)O)P(=O)(O)O)cn2)CCN(CC(=O)O)CC1.[177Lu+3] [[^177Lu]DOTA^ZOL]																				Selectivity of distribution (bone metastases [4]; first clinical studies, FIG. 5 scintigraphy 6 hours after injection): high selectivity; PSA value after treatment (bone metastases [4]; prostate carcinoma patient, within two months after only one treatment with 5.5 GBq, initially 478 ng/mL): 88 ng/mL
